pIC50: −log10 of the molar value. Calls of active or inactive are those of the source. The rule behind the calls is not given here.

Series [1] deals with Rattus norvegicus. Briefly: Toxicity in ovariectomy rat model assessed as undeveloped endometrial luminal epithelium at 0.1 to 10 mg/kg/day, po administered for 4 weeks by haematoxylin/eosin staining based microscopy. In kind it is organism-based. The settings on record: in vivo, 672 h.
The test system of series [2] is Rattus norvegicus. Put plainly: Toxicity in ovariectomy rat model assessed as reduction in uterine weight at 0.1 to 10 mg/kg/day, po administered for 4 weeks. In kind it is organism-based. Particulars: in vivo, 672 h.
Series [3] relates to RAW264.7. Put plainly: Downregulation of RANKL-induced CathK mRNA expression in mouse RAW264.7 cells at 1 to 5 uM after 4 days by RT-qPCR analysis. In kind it is functional, cell-based. For orientation: Real-time PCR tracks product formation cycle by cycle.
For series [4], the system named is RAW264.7. Briefly: Downregulation of RANKL-induced TRAP mRNA expression in mouse RAW264.7 cells at 1 to 5 uM after 4 days by RT-qPCR analysis. In kind it is functional, cell-based.
Series [5] in a line: Cytotoxicity against mouse RAW264.7 cells assessed as inhibition of cell viability at 10 uM after 24 hrs by MTT assay. Particulars: read-out: INH. In kind it is cell-based.
In series [6] the test system is RAW264.7. Briefly: Downregulation of RANKL-induced CTR mRNA expression in mouse RAW264.7 cells at 1 to 5 uM after 4 days by RT-qPCR analysis. In kind it is functional, cell-based.
Series [7] deals with RAW264.7. Briefly: Antiosteoclast activity in mouse RAW264.7 cells assessed as inhibition of RANKL-induced osteoclast differentiation at 20 uM after 5 days by TRAP assay. In kind it is functional. The settings on record: RAW264.7, 120 h.
Series [8] relates to RAW264.7. Put plainly: Downregulation of RANKL-induced c-Fos protein expression in mouse RAW264.7 cells at 5 uM after 2 days by Western blot analysis. In kind it is functional, cell-based. In general terms: In western blotting, separated proteins are transferred to a membrane and probed.
The nature of series [9]: Cytotoxicity against mouse RAW264.7 cells assessed as inhibition of cell viability at 2 uM after 24 hrs by MTT assay. In kind it is cell-based. Particulars: read-out: INH. (In general: Tetrazolium assays rely on reduction of a dye to a coloured formazan, in cell work by metabolically active cells.)
Series [10] relates to RAW264.7. Put plainly: Downregulation of RANKL-induced NFATc1 mRNA expression in mouse RAW264.7 cells at 5 uM after 2 days by RT-qPCR analysis. In kind it is functional, cell-based.
Series [11] relates to RAW264.7. Put plainly: Antiosteoclast activity in mouse RAW264.7 cells assessed as reduction in multinucleated osteoclasts at 2 to 20 uM after 5 days by TRAP assay. In kind it is functional, cell-based.
Series [12] concerns Rattus norvegicus. Put plainly: Antiosteoporotic effect in ovariectomy rat model assessed as increase in bone mineral density of lumbar spine L3 to L5 at 0.1 mg/kg/day, po administered for 4 weeks by dual-energy X-ray absorptiometry relative to control. In kind it is functional, organism-based.
The subject of series [13] is Rattus norvegicus. Put plainly: Toxicity in ovariectomy rat model assessed as undeveloped endometrial gland at 0.1 to 10 mg/kg/day, po administered for 4 weeks by haematoxylin/eosin staining based microscopy. In kind it is organism-based. Particulars: in vivo, 672 h.
Series [14] has as its system Rattus norvegicus. Briefly: Antiosteoporotic effect in ovariectomy rat model assessed as increase in bone mineral density of lumbar spine L3 to L5 at 1 mg/kg/day, po administered for 4 weeks by dual-energy X-ray absorptiometry relative to control. In kind it is functional, organism-based.
Series [15] relates to RAW264.7. Put plainly: Antiosteoclast activity in mouse RAW264.7 cells assessed as inhibition of RANKL-induced osteoclast differentiation at 2 uM after 5 days by TRAP assay. In kind it is functional. Particulars: RAW264.7, 120 h.
The subject of series [16] is RAW264.7. Put plainly: Downregulation of RANKL-induced c-Fos mRNA expression in mouse RAW264.7 cells at 1 to 5 uM after 2 days by RT-qPCR analysis. In kind it is functional, cell-based.
The nature of series [17]: Cytotoxicity against mouse RAW264.7 cells assessed as inhibition of cell viability at 20 uM after 24 hrs by MTT assay. In kind it is cell-based. Particulars: read-out: INH.
In series [18] the test system is RAW264.7. Put plainly: Downregulation of RANKL-induced NFATc1 protein expression in mouse RAW264.7 cells at 5 uM after 2 days by Western blot analysis. In kind it is functional, cell-based.
Series [19] concerns RAW264.7. Put plainly: cells. The settings on record: Mus musculus, RAW264.7, 120 h.
Description: Antiosteoclast activity in mouse RAW264.7 cells assessed as inhibition of RANKL-induced osteoclast differentiation after 5 days by TRAP assay
The subject of series [20] is Rattus norvegicus. Put plainly: Antiosteoporotic effect in ovariectomy rat model assessed as increase in bone mineral density of lumbar spine L3 to L5 at 10 mg/kg/day, po administered for 4 weeks by dual-energy X-ray absorptiometry relative to control. In kind it is functional, organism-based.
Series [21] can be described thus: Cytotoxicity against mouse RAW264.7 cells assessed as inhibition of cell viability at 5 uM after 24 hrs by MTT assay. In kind it is cell-based. The settings on record: read-out: INH.

One may read the inhibition as the change of the read-out against control, counted positive when it falls. By pIC50 is commonly meant the negative decadic logarithm of the IC50, by convention in mol/L. Low readings indicate a high IC50, high ones a low IC50. As for `COc1ccc(S(=O)(=O)n2cc3c(n2)C(C)(C)[C@@H]2CC[C@]4(C)[C@H](CC=C5[C@@H]6CC(C)(C)CC[C@]6(C(=O)NC6CCN(Cc7ccccc7)CC6)CC[C@]54C)[C@@]2(C)C3)cc1`, the Activity entry with Rattus norvegicus [1], in the series on Rattus norvegicus [2] and with Rattus norvegicus [13] was “Non-toxic” throughout. Besides, the inhibition entry with RAW264.7 [3], in the series on RAW264.7 [4], in the series on RAW264.7 [6], with RAW264.7 [8], with RAW264.7 [10] and with RAW264.7 [11] was “Active” throughout. The inhibition entry in the series on RAW264.7 [16] and in the series on RAW264.7 [18] was “Active” each time. Also, the cytotoxicity at 24 h, 10 µM in [5] worked out at 6.6%. The inhibition at 20 µM in the series with RAW264.7 [7] worked out at 100%. Moreover, the cytotoxicity at 24 h, 2 µM in series [9] worked out at 0%. For the same compound, in the series on Rattus norvegicus [12], the result was inactive. For the same compound, the result in the series with Rattus norvegicus [14] and in the series with Rattus norvegicus [20] was Active. Besides, the inhibition at 2 µM with RAW264.7 [15] was found to be 90%. In addition, the cytotoxicity at 24 h, 20 µM in [17] worked out at 58.2%. For the same compound, the pIC50 in the series on RAW264.7 [19] was 7.62. Moreover, in series [21], the cytotoxicity at 24 h, 5 µM turned out to be 0%.

`COc1ccc(S(=O)(=O)n2cc3c(n2)C(C)(C)[C@@H]2CC[C@]4(C)[C@H](CC=C5[C@@H]6CC(C)(C)CC[C@]6(C(=O)NCCN6CCCCC6)CC[C@]54C)[C@@]2(C)C3)cc1`: the cytotoxicity at 24 h, 10 µM in series [5] was 67.5%. The inhibition at 20 µM with RAW264.7 [7] was 100%. Besides, the cytotoxicity at 24 h, 2 µM in [9] was found to be 0%. The inhibition at 2 µM in the series with RAW264.7 [15] stood at 100%. In series [17], the cytotoxicity at 24 h, 20 µM was 72.9%. Besides, in the series on RAW264.7 [19], the pIC50 is 7.06. In addition, in series [21], the cytotoxicity at 24 h, 5 µM worked out at 0%.

Consider `COc1ccc(S(=O)(=O)n2cc3c(n2)C(C)(C)[C@@H]2CC[C@]4(C)[C@H](CC=C5[C@@H]6CC(C)(C)CC[C@]6(C(=O)NC6CCN(Cc7ccccc7)CC6)CC[C@]54C)[C@@]2(C)C3)cc1OC`, for which, in series [5], the cytotoxicity at 24 h, 10 µM worked out at 0%. For the same compound, in the series on RAW264.7 [7], the inhibition at 20 µM came to 100%. Also, the cytotoxicity at 24 h, 2 µM in series [9] amounted to 0%. Further, the inhibition at 2 µM in the series on RAW264.7 [15] was 93.2%. The cytotoxicity at 24 h, 20 µM in series [17] turned out to be 0%. This compound also gave a pIC50 in the series with RAW264.7 [19] of 7.46. The cytotoxicity at 24 h, 5 µM in [21] was 0%.

Turning to `CC1(C)CC[C@]2(C(=O)NCCN3CCCCC3)CC[C@]3(C)C(=CC[C@@H]4[C@@]5(C)Cc6c[nH]nc6C(C)(C)[C@@H]5CC[C@]43C)[C@@H]2C1`, in series [5], the cytotoxicity at 24 h, 10 µM was 0%. Moreover, in the series with RAW264.7 [7], the inhibition at 20 µM was determined as 100%. In addition, the cytotoxicity at 24 h, 2 µM in series [9] was 0%. In addition, in the series with RAW264.7 [15], the inhibition at 2 µM was found to be 95.1%. Moreover, the cytotoxicity at 24 h, 20 µM in series [17] stood at 0%. This compound also had a pIC50 in the series on RAW264.7 [19] of 7.00. Besides, the cytotoxicity at 24 h, 5 µM in [21] stood at 0%.

For `COc1ccc(S(=O)(=O)n2cc3c(n2)C(C)(C)[C@@H]2CC[C@]4(C)[C@H](CC=C5[C@@H]6CC(C)(C)CC[C@]6(C(=O)NCCN6CCCCC6)CC[C@]54C)[C@@]2(C)C3)cc1OC`, the cytotoxicity at 24 h, 10 µM in series [5] came out at 52.6%. Further, the inhibition at 20 µM in the series on RAW264.7 [7] stood at 100%. In [9], the cytotoxicity at 24 h, 2 µM was found to be 0%. Further, the inhibition at 2 µM in the series with RAW264.7 [15] was 100%. Also, the cytotoxicity at 24 h, 20 µM in [17] stood at 71.1%. In the series on RAW264.7 [19], this compound showed a pIC50 of 6.89. Also, the cytotoxicity at 24 h, 5 µM in series [21] worked out at 0%.

As to `CC1(C)CC[C@]2(C(=O)NCCN3CCCCC3)CC[C@]3(C)C(=CC[C@@H]4[C@@]5(C)Cc6cn(S(=O)(=O)c7ccc(F)cc7)nc6C(C)(C)[C@@H]5CC[C@]43C)[C@@H]2C1`, the cytotoxicity at 24 h, 10 µM in series [5] is 74%. The inhibition at 20 µM in the series on RAW264.7 [7] worked out at 100%. Moreover, the cytotoxicity at 24 h, 2 µM in series [9] came to 0%. Moreover, the inhibition at 2 µM with RAW264.7 [15] is 100%. In addition, the cytotoxicity at 24 h, 20 µM in series [17] was determined as 70.8%. The pIC50 in the series on RAW264.7 [19] is 7.37. In addition, the cytotoxicity at 24 h, 5 µM in [21] was found to be 0%.

As for `NCCCC(O)(P(=O)(O)O)P(=O)(O)O` [ALENDRONATE SODIUM], the outcome with Rattus norvegicus [14] was Active. In addition, in the series on RAW264.7 [15], the inhibition at 2 µM is 93.2%. Also, the pIC50 in the series with RAW264.7 [19] is 7.08.

Take `CC1(C)CC[C@]2(C(=O)NCCN3CCCCC3)CC[C@]3(C)C(=CC[C@@H]4[C@@]5(C)Cc6cn(S(=O)(=O)c7ccc(Br)cc7)nc6C(C)(C)[C@@H]5CC[C@]43C)[C@@H]2C1`: the cytotoxicity at 24 h, 10 µM in series [5] stood at 67.2%. The inhibition at 20 µM in the series with RAW264.7 [7] came out at 100%. Moreover, in series [9], the cytotoxicity at 24 h, 2 µM was 0%. Further, in the series on RAW264.7 [15], the inhibition at 2 µM stood at 100%. Also, the cytotoxicity at 24 h, 20 µM in series [17] stood at 70.8%. The compound also had a pIC50 with RAW264.7 [19] of 7.11. Further, the cytotoxicity at 24 h, 5 µM in [21] was 0%.

Values taken from ChEMBL document CHEMBL3784938, “Novel heterocyclic ring-fused oleanolic acid derivatives as osteoclast inhibitors for osteoporosis” (Medchemcomm, 2016).
